{"source": "patent US12427134B2", "about": "“Methods of reducing the risk of cardiovascular events in a subject with atrial fibrillation and/or atrial flutter” (priority 2019, dated 2025)", "tested_on": "hypertriglyceridemic patients with cardiovascular disease or at high risk for cardiovascular disease", "experiment": "REDUCE-IT: treatment-emergent adverse events and serious adverse events (safety population)", "key": {"[1]": {"conditions": "BMI ≥25 to <30 kg/m^2 (N = 1427)"}, "[2]": {"conditions": "No Ezetimibe at baseline (N = 3827)"}, "[3]": {"conditions": "Region Eastern Europe (N = 1053)"}}}
{"smiles": "CC/C=C\\C/C=C\\C/C=C\\C/C=C\\C/C=C\\CCCC(=O)OCC", "note": "[AMR101, eicosapentaenoic acid ethyl ester]", "values": [{"measurement": "Patients with at least 1 TEAE, %", "setting": "Age <65 years (N = 2232)", "result": "(77.3) %"}, {"measurement": "TEAE: GI disorders, %", "setting": "Age <65 years (N = 2232)", "result": "(27.9) %"}, {"measurement": "TEAE: General disorders and administration site condition, %", "setting": "Age <65 years (N = 2232)", "result": "(21.6) %"}, {"measurement": "TEAE: Musculoskeletal and connective tissue disorders, %", "setting": "Age <65 years (N = 2232)", "result": "(31.4) %"}, {"measurement": "TEAE: Nervous system disorders, %", "setting": "Age <65 years (N = 2232)", "result": "(20.3) %"}, {"measurement": "TEAE: Respiratory, thoracic, and mediastinal disorders, %", "setting": "Age <65 years (N = 2232)", "result": "(18.9) %"}, {"measurement": "Patients with at least 1 TEAE, %", "setting": "Age ≥65 years (N = 1857)", "result": "(87.1) %"}, {"measurement": "TEAE: GI disorders, %", "setting": "Age ≥65 years (N = 1857)", "result": "(39.2) %"}, {"measurement": "TEAE: General disorders and administration site condition, %", "setting": "Age ≥65 years (N = 1857)", "result": "(29.5) %"}, {"measurement": "TEAE: Musculoskeletal and connective tissue disorders, %", "setting": "Age ≥65 years (N = 1857)", "result": "(41.2) %"}, {"measurement": "TEAE: Nervous system disorders, %", "setting": "Age ≥65 years (N = 1857)", "result": "(29.7) %"}, {"measurement": "TEAE: Respiratory, thoracic, and mediastinal disorders, %", "setting": "Age ≥65 years (N = 1857)", "result": "(30.5) %"}, {"measurement": "TEAEs, overall incidence", "setting": "Asia Pacific region subgroup", "result": 76.9, "unit": "%"}, {"measurement": "TEAE class nervous system disorders, patients", "setting": "Asian Pacific region subgroup", "result": 20.8, "unit": "%"}, {"measurement": "Patients with at least 1 TEAE, %", "setting": "BMI <25 kg/m^2 (N = 320)", "result": "(80.6) %"}, {"measurement": "TEAE: GI disorders, %", "setting": "BMI <25 kg/m^2 (N = 320)", "result": "(33.8) %"}, {"measurement": "TEAE: General disorders and administration site condition, %", "setting": "BMI <25 kg/m^2 (N = 320)", "result": "(23.1) %"}, {"measurement": "TEAE: Musculoskeletal and connective tissue disorders, %", "setting": "BMI <25 kg/m^2 (N = 320)", "result": "(26.9) %"}, {"measurement": "TEAE: Nervous system disorders, %", "setting": "BMI <25 kg/m^2 (N = 320)", "result": "(22.8) %"}, {"measurement": "TEAE: Respiratory, thoracic, and mediastinal disorders, %", "setting": "BMI <25 kg/m^2 (N = 320)", "result": "(21.3) %"}, {"measurement": "Patients with at least 1 TEAE, %", "setting": "[1]", "result": "(81.5) %"}, {"measurement": "TEAE: GI disorders, %", "setting": "[1]", "result": "(30.8) %"}, {"measurement": "TEAE: General disorders and administration site condition, %", "setting": "[1]", "result": "(24.0) %"}, {"measurement": "TEAE: Musculoskeletal and connective tissue disorders, %", "setting": "[1]", "result": "(33.4) %"}, {"measurement": "TEAE: Nervous system disorders, %", "setting": "[1]", "result": "(23.6) %"}, {"measurement": "TEAE: Respiratory, thoracic, and mediastinal disorders, %", "setting": "[1]", "result": "(22.7) %"}, {"measurement": "TEAE class GI disorders, patients", "setting": "BMI ≥25 to <30 kg/m^2 subgroup", "result": 30.8, "unit": "%"}, {"measurement": "Patients with at least 1 TEAE, %", "setting": "BMI ≥30 kg/m^2 (N = 2331)", "result": "(82.3) %"}, {"measurement": "TEAE: GI disorders, %", "setting": "BMI ≥30 kg/m^2 (N = 2331)", "result": "(34.3) %"}, {"measurement": "TEAE: General disorders and administration site condition, %", "setting": "BMI ≥30 kg/m^2 (N = 2331)", "result": "(26.3) %"}, {"measurement": "TEAE: Musculoskeletal and connective tissue disorders, %", "setting": "BMI ≥30 kg/m^2 (N = 2331)", "result": "(38.7) %"}, {"measurement": "TEAE: Nervous system disorders, %", "setting": "BMI ≥30 kg/m^2 (N = 2331)", "result": "(25.5) %"}, {"measurement": "TEAE: Respiratory, thoracic, and mediastinal disorders, %", "setting": "BMI ≥30 kg/m^2 (N = 2331)", "result": "(25.6) %"}, {"measurement": "Patients with at least 1 TEAE, %", "setting": "Baseline Ezetimibe (N = 262)", "result": "(92.0) %"}, {"measurement": "TEAE: GI disorders, %", "setting": "Baseline Ezetimibe (N = 262)", "result": "(37.4) %"}, {"measurement": "TEAE: General disorders and administration site condition, %", "setting": "Baseline Ezetimibe (N = 262)", "result": "(26.3) %"}, {"measurement": "TEAE: Musculoskeletal and connective tissue disorders, %", "setting": "Baseline Ezetimibe (N = 262)", "result": "(41.2) %"}, {"measurement": "TEAE: Nervous system disorders, %", "setting": "Baseline Ezetimibe (N = 262)", "result": "(23.7) %"}, {"measurement": "TEAE: Respiratory, thoracic, and mediastinal disorders, %", "setting": "Baseline Ezetimibe (N = 262)", "result": "(27.5) %"}, {"measurement": "Patients with at least 1 TEAE, %", "setting": "CV Risk Category 1 (N = 2892)", "result": "(81.6) %"}, {"measurement": "TEAE: GI disorders, %", "setting": "CV Risk Category 1 (N = 2892)", "result": "(31.3) %"}, {"measurement": "TEAE: General disorders and administration site condition, %", "setting": "CV Risk Category 1 (N = 2892)", "result": "(25.3) %"}, {"measurement": "TEAE: Musculoskeletal and connective tissue disorders, %", "setting": "CV Risk Category 1 (N = 2892)", "result": "(33.6) %"}, {"measurement": "TEAE: Nervous system disorders, %", "setting": "CV Risk Category 1 (N = 2892)", "result": "(23.4) %"}, {"measurement": "TEAE: Respiratory, thoracic, and mediastinal disorders, %", "setting": "CV Risk Category 1 (N = 2892)", "result": "(23.4) %"}, {"measurement": "Patients with at least 1 TEAE, %", "setting": "CV Risk Category 2 (N = 1197)", "result": "(82.1) %"}, {"measurement": "TEAE: GI disorders, %", "setting": "CV Risk Category 2 (N = 1197)", "result": "(37.2) %"}, {"measurement": "TEAE: General disorders and administration site condition, %", "setting": "CV Risk Category 2 (N = 1197)", "result": "(24.9) %"}, {"measurement": "TEAE: Musculoskeletal and connective tissue disorders, %", "setting": "CV Risk Category 2 (N = 1197)", "result": "(41.3) %"}, {"measurement": "TEAE: Nervous system disorders, %", "setting": "CV Risk Category 2 (N = 1197)", "result": "(27.4) %"}, {"measurement": "TEAE: Respiratory, thoracic, and mediastinal disorders, %", "setting": "CV Risk Category 2 (N = 1197)", "result": "(26.1) %"}, {"measurement": "Patients with at least 1 TEAE, %", "setting": "Female (N = 1162)", "result": "(79.9) %"}, {"measurement": "TEAE: GI disorders, %", "setting": "Female (N = 1162)", "result": "(38.3) %"}, {"measurement": "TEAE: General disorders and administration site condition, %", "setting": "Female (N = 1162)", "result": "(25.5) %"}, {"measurement": "TEAE: Musculoskeletal and connective tissue disorders, %", "setting": "Female (N = 1162)", "result": "(37.6) %"}, {"measurement": "TEAE: Nervous system disorders, %", "setting": "Female (N = 1162)", "result": "(27.6) %"}, {"measurement": "TEAE: Respiratory, thoracic, and mediastinal disorders, %", "setting": "Female (N = 1162)", "result": "(23.4) %"}, {"measurement": "Patients with at least 1 TEAE, %", "setting": "Male (N = 2927)", "result": "(82.5) %"}, {"measurement": "TEAE: GI disorders, %", "setting": "Male (N = 2927)", "result": "(30.9) %"}, {"measurement": "TEAE: General disorders and administration site condition, %", "setting": "Male (N = 2927)", "result": "(25.1) %"}, {"measurement": "TEAE: Musculoskeletal and connective tissue disorders, %", "setting": "Male (N = 2927)", "result": "(35.2) %"}, {"measurement": "TEAE: Nervous system disorders, %", "setting": "Male (N = 2927)", "result": "(23.3) %"}, {"measurement": "TEAE: Respiratory, thoracic, and mediastinal disorders, %", "setting": "Male (N = 2927)", "result": "(24.5) %"}, {"measurement": "Patients with at least 1 TEAE, %", "setting": "[2]", "result": "(81.1) %"}, {"measurement": "TEAE: GI disorders, %", "setting": "[2]", "result": "(32.7) %"}, {"measurement": "TEAE: General disorders and administration site condition, %", "setting": "[2]", "result": "(25.1) %"}, {"measurement": "TEAE: Musculoskeletal and connective tissue disorders, %", "setting": "[2]", "result": "(35.5) %"}, {"measurement": "TEAE: Nervous system disorders, %", "setting": "[2]", "result": "(24.6) %"}, {"measurement": "TEAE: Respiratory, thoracic, and mediastinal disorders, %", "setting": "[2]", "result": "(24.0) %"}, {"measurement": "Patients with at least 1 TEAE, %", "setting": "Race Non-white (N = 398)", "result": "(81.4) %"}, {"measurement": "TEAE: GI disorders, %", "setting": "Race Non-white (N = 398)", "result": "(28.9) %"}, {"measurement": "TEAE: General disorders and administration site condition, %", "setting": "Race Non-white (N = 398)", "result": "(25.4) %"}, {"measurement": "TEAE: Musculoskeletal and connective tissue disorders, %", "setting": "Race Non-white (N = 398)", "result": "(30.9) %"}, {"measurement": "TEAE: Nervous system disorders, %", "setting": "Race Non-white (N = 398)", "result": "(23.4) %"}, {"measurement": "TEAE: Respiratory, thoracic, and mediastinal disorders, %", "setting": "Race Non-white (N = 398)", "result": "(23.9) %"}, {"measurement": "Patients with at least 1 TEAE, %", "setting": "Race White (N = 3691)", "result": "(81.8) %"}, {"measurement": "TEAE: GI disorders, %", "setting": "Race White (N = 3691)", "result": "(33.5) %"}, {"measurement": "TEAE: General disorders and administration site condition, %", "setting": "Race White (N = 3691)", "result": "(25.2) %"}, {"measurement": "TEAE: Musculoskeletal and connective tissue disorders, %", "setting": "Race White (N = 3691)", "result": "(36.4) %"}, {"measurement": "TEAE: Nervous system disorders, %", "setting": "Race White (N = 3691)", "result": "(24.7) %"}, {"measurement": "TEAE: Respiratory, thoracic, and mediastinal disorders, %", "setting": "Race White (N = 3691)", "result": "(24.2) %"}, {"measurement": "Patients with at least 1 TEAE, %", "setting": "Region Asia Pacific (N = 130)", "result": "(76.9) %"}, {"measurement": "TEAE: GI disorders, %", "setting": "Region Asia Pacific (N = 130)", "result": "(18.5) %"}, {"measurement": "TEAE: General disorders and administration site condition, %", "setting": "Region Asia Pacific (N = 130)", "result": "(22.3) %"}, {"measurement": "TEAE: Musculoskeletal and connective tissue disorders, %", "setting": "Region Asia Pacific (N = 130)", "result": "(17.7) %"}, {"measurement": "TEAE: Nervous system disorders, %", "setting": "Region Asia Pacific (N = 130)", "result": "(20.8) %"}, {"measurement": "TEAE: Respiratory, thoracic, and mediastinal disorders, %", "setting": "Region Asia Pacific (N = 130)", "result": "(17.7) %"}, {"measurement": "Patients with at least 1 TEAE, %", "setting": "[3]", "result": "(58.1) %"}, {"measurement": "TEAE: GI disorders, %", "setting": "[3]", "result": "(11.9) %"}, {"measurement": "Patients with at least 1 TEAE, %", "setting": "Region Westernized (N = 2906)", "result": "(90.5) %"}, {"measurement": "TEAE: GI disorders, %", "setting": "Region Westernized (N = 2906)", "result": "(41.3) %"}, {"measurement": "TEAE: General disorders and administration site condition, %", "setting": "Region Westernized (N = 2906)", "result": "(32.2) %"}, {"measurement": "TEAE: Musculoskeletal and connective tissue disorders, %", "setting": "Region Westernized (N = 2906)", "result": "(46.4) %"}, {"measurement": "TEAE: Nervous system disorders, %", "setting": "Region Westernized (N = 2906)", "result": "(30.0) %"}]}
